Values quoted from earlier work in EP2566451B1, “PHARMACEUTICAL COMPOSITIONS COMPRISING CEFDITOREN PIVOXIL” (Bilgic, Mahmut, priority 2010, dated 2011).

Conditions: in water; stated in the background section, approximately

water solubility: less than 1 mg/ml
SMILES: CO/N=C(\C(=O)N[C@@H]1C(=O)N2C(C(=O)OCOC(=O)C(C)(C)C)=C(/C=C\c3scnc3C)CS[C@H]12)c1csc(N)n1 [Cefditoren pivoxil, (6R,7R)-pivaloyloxymethyl 7-[(Z)-2-(2-aminothiazol-4-yl)-2-(methoxyimino)acetamido]-3-[(Z)-2-(4-methylthiazol-5-yl)vinyl]-8-oxo-5-thia-1-azabicyclo[4.2.0]oct-2-ene-2-carboxylate]
